From patent USRE46943E1, “Radioprotector compounds and methods” (PETER MACCALLUM CANCER INSTITUTE, priority 2010, dated 2018)
Like-named read-outs stand apart in the source and are kept apart here.

Legend:
[1] = test system: transformed human keratinocyte cell line (FEP 1811); test: Clonogenic survival cell culture assay for cytotoxicity; assay type: cell-based; conditions: un-irradiated keratinocytes, one hour drug exposure, colonies counted after eight days, read-out: C50 (concentration of radioprotector that results in 50% clonogenic survival)
Experimental: • i. […] In appropriate cases, tautomers are drawn to illustrate potential hydrogen-bond donating configurations into the minor groove of DNA. • ii. 2-Amino-4-(5′-(4″-methylpiperazin-1″-yl)benzimidazol-2′-yl)aniline was prepared by hydrogenation of 4-(5′-(4″-methylpiperazin-1″-yl)benzimidazol-2′-yl)-2-nitroaniline, using a modification of the method of Kelly et al, Aust. […] 2-Amino-4-(5′-(piperidin-1″-yl)benzimidazol-2′-yl)aniline was prepared by hydrogenation of 2-nitro-4-(5′-(piperidin-1″-yl)benzimidazol-2′-yl)aniline, using a modification of the method of Kelly et al, Aust. […] Ethyl 4-amino-3-nitrobenzenecarboximidate hydrochloride was prepared by reaction of 4-amino-3-nitrobenzonitrile with dry HCl gas in ethanol, using the method of Kelly et al, Aust. […] 5-(4′-Methylpiperazin-1′-yl)-2-nitroaniline was prepared using a modification of the method of Kelly et al, Aust. […] The following chemicals were obtained from the chemical suppliers indicated: 2-furaldehyde (Aldrich), 2-pyridinecarboxaldehyde (Aldrich), 3-fluoropyridine-2-carbaldehyde (Maybridge), 3-trifluoromethylpyridine-2-carboxaldehyde (Apollo Scientific), 6-methyl-2-pyridinecarboxaldehyde (Matrix Scientific), 5-methylpyridine-2-carbonitrile (Apollo Scientific), 4-methyl-2-pyridinecarbonitrile (Aldrich), 4-chloro-2-pyridinecarbonitrile (Aldrich), 4-methoxypicolinonitrile (Combi-Blocks), pyrazinecarbonitrile (Aldrich), 2-quinolinecarbonitrile (Aldrich), 3-isoquinolinecarbonitrile (Aldrich), 1-isoquinolinecarboxylic acid (Aldrich), indazole-3-carboxylic acid (Aldrich), 2-hydroxynicotinic acid (Aldrich), 4-hydroxypiperidine (Aldrich), 1-methylhomopiperazine (Aldrich), 3-hydroxypiperidine (Aldrich), 4-(N-BOC-amino)piperidine (Aldrich), 4-methoxypiperidine (Acros), 4-methyl-3-nitrobenzonitrile (Aldrich), 5-chloro-2-nitroaniline (Aldrich), 2-cyanopyridine (Aldrich), methyl 4-amino-2-methoxybenzoic acid (Aldrich), 4-(trifluoromethyl)-2-pyridinecarbonitrile (Matrix Scientific), cis-2,6-dimethylmorphoiline (Acros), 5-(trifluoromethyl)-2-pyridinecarbonitrile (Advanced Chemical Intermediates) and 5-fluoro-2-pyridinecarbonitrile (Advanced Chemical Intermediates). • ix. […] Melting points were determined using an Electrothermal melting point apparatus, and are uncorrected. […] The abbreviations s for singlet, d for doublet, t for triplet, q for quartet, br for broad and m for muitiplet were used in the assignments of multiplicity. A value approximating the centre of a multiplet is quoted. […] The addition of a few drops of acetic acid to methanol-d4 solutions was used to enhance solubility for the acquisition of ^13C nmr spectra. Mass spectra were recorded on a Micromass Quattro II mass spectrometer and accurate mass analyses were carried out by the School of Chemistry at the University of Melbourne on a Finnigan LTQ-FT model high resolution mass spectrometer. Thin layer chromatography (TLC) was carried out using Merck silica gel 60 F254 aluminium sheets or Merck neutral aluminium oxide 150 F254 sheets. Flash column chromatography was carried out using Ajax silica gel 230-400 mesh. • xi. […] The details are described in detail in Martin et al (4) (the disclosure of which is included herein in its entirety by way of reference), but briefly, mid-log phase monolayer cultures are incubated with various concentrations of the test drugs for one hour, after which the monolayers are washed and dispersed into single cell suspensions using pronase, and finally appropriate numbers of cells are dispensed into Petri dishes. Colonies are counted after eight days incubation. […] The irradiation (with a dose rate of 0.6 Gy per minute) is started 30 minutes after addition of the test drug. After completion of irradiation, incubation of cultures is continued until the total time of exposure to the drug reaches 60 minutes. Cultures are then washed and plated for clonogenic survival as described for the cytotoxicity experiments.

[2] = test system: transformed human keratinocyte cell line (FEP 1811); test: Clonogenic survival cell culture assay for radioprotective activity (12 Gy 137Cs gamma irradiation); assay type: cell-based
Text: PF is defined as a ratio of survival at maximum protection Sm and survival after irradiation only So: PF=Sm/So. DMF is defined as a ratio of doses that result in survival level of Sm in the presence Dp and the absence Dc of radioprotector: DMF=Dp/Dc. DMF10 is define in a similar way except that instead of Sm a survival at 10 microM of radioprotector is used.
PF (Protection Factor) is defined as a ratio of survival at maximum protection Sm and survival after irradiation only So:PF=Sm/So. DMF (Dose Modification Factor) is defined as a ratio of doses that result in survival level of Sm in the presence (Dp) and the absence (Dc) of radioprotector: DMF=Dp/Dc. DMF10 is defined in a similar way except that instead of Sm a survival at 10 microM of radioprotector is used.
• i. […] In appropriate cases, tautomers are drawn to illustrate potential hydrogen-bond donating configurations into the minor groove of DNA. • ii. 2-Amino-4-(5′-(4″-methylpiperazin-1″-yl)benzimidazol-2′-yl)aniline was prepared by hydrogenation of 4-(5′-(4″-methylpiperazin-1″-yl)benzimidazol-2′-yl)-2-nitroaniline, using a modification of the method of Kelly et al, Aust. […] 2-Amino-4-(5′-(piperidin-1″-yl)benzimidazol-2′-yl)aniline was prepared by hydrogenation of 2-nitro-4-(5′-(piperidin-1″-yl)benzimidazol-2′-yl)aniline, using a modification of the method of Kelly et al, Aust. […] Ethyl 4-amino-3-nitrobenzenecarboximidate hydrochloride was prepared by reaction of 4-amino-3-nitrobenzonitrile with dry HCl gas in ethanol, using the method of Kelly et al, Aust. […] 5-(4′-Methylpiperazin-1′-yl)-2-nitroaniline was prepared using a modification of the method of Kelly et al, Aust. […] The following chemicals were obtained from the chemical suppliers indicated: 2-furaldehyde (Aldrich), 2-pyridinecarboxaldehyde (Aldrich), 3-fluoropyridine-2-carbaldehyde (Maybridge), 3-trifluoromethylpyridine-2-carboxaldehyde (Apollo Scientific), 6-methyl-2-pyridinecarboxaldehyde (Matrix Scientific), 5-methylpyridine-2-carbonitrile (Apollo Scientific), 4-methyl-2-pyridinecarbonitrile (Aldrich), 4-chloro-2-pyridinecarbonitrile (Aldrich), 4-methoxypicolinonitrile (Combi-Blocks), pyrazinecarbonitrile (Aldrich), 2-quinolinecarbonitrile (Aldrich), 3-isoquinolinecarbonitrile (Aldrich), 1-isoquinolinecarboxylic acid (Aldrich), indazole-3-carboxylic acid (Aldrich), 2-hydroxynicotinic acid (Aldrich), 4-hydroxypiperidine (Aldrich), 1-methylhomopiperazine (Aldrich), 3-hydroxypiperidine (Aldrich), 4-(N-BOC-amino)piperidine (Aldrich), 4-methoxypiperidine (Acros), 4-methyl-3-nitrobenzonitrile (Aldrich), 5-chloro-2-nitroaniline (Aldrich), 2-cyanopyridine (Aldrich), methyl 4-amino-2-methoxybenzoic acid (Aldrich), 4-(trifluoromethyl)-2-pyridinecarbonitrile (Matrix Scientific), cis-2,6-dimethylmorphoiline (Acros), 5-(trifluoromethyl)-2-pyridinecarbonitrile (Advanced Chemical Intermediates) and 5-fluoro-2-pyridinecarbonitrile (Advanced Chemical Intermediates). • ix. […] Melting points were determined using an Electrothermal melting point apparatus, and are uncorrected. […] The abbreviations s for singlet, d for doublet, t for triplet, q for quartet, br for broad and m for muitiplet were used in the assignments of multiplicity. A value approximating the centre of a multiplet is quoted. […] The addition of a few drops of acetic acid to methanol-d4 solutions was used to enhance solubility for the acquisition of ^13C nmr spectra. Mass spectra were recorded on a Micromass Quattro II mass spectrometer and accurate mass analyses were carried out by the School of Chemistry at the University of Melbourne on a Finnigan LTQ-FT model high resolution mass spectrometer. Thin layer chromatography (TLC) was carried out using Merck silica gel 60 F254 aluminium sheets or Merck neutral aluminium oxide 150 F254 sheets. Flash column chromatography was carried out using Ajax silica gel 230-400 mesh. • xi.

[3] = 12 Gy, 10 microM radioprotector
[4] = 12 Gy, DMF=Dp/Dc at survival level Sm
[5] = 12 Gy, survival at maximum protection vs irradiation only
[6] = Homo sapiens, Keratinocyte, light or radiation study

| Compound | IC50 [1] | DMF10 (dose modification factor at a concentration of 10 microM of radioprotector) [2] | DMFm (dose modification factor at maximum protection) [2] | PF (protection factor = Sm/So) [2] | DMF10 (dose modification factor at a concentration of 10 microM of radioprotector) [2, 3] | DMFm (dose modification factor at maximum protection) [2, 4] | PF (protection factor = Sm/So) [2, 5] | IC50 [1, 6] |
| --- | --- | --- | --- | --- | --- | --- | --- | --- |
| 2-(5′-(5″-(2′″-(dimethylamino)ethoxy)benzimidazol-2″-yl)benzimidazol-2′-yl)pyridine [Example 44] | 146 µM | 1.50 | 1.88 | 17.6 | – | – | – | – |
| 2-(5′-(5″-(4′″-methylpiperazin-1′″-yl)-1H-indol-2″-yl)benzimidazol-2′-yl)pyridine [Example 53] | 34.1 µM | – | – | – | 1.21 | 1.30 | 4.9 | – |
| Cc1cccc(-c2nc3ccc(-c4nc5ccc(N6CCN(C)CC6)cc5[nH]4)cc3[nH]2)n1 [Example 5, 6-Methyl-2-(5′-(5″-(4′″-methylpiperazin-1′″-yl)benzimidazol-2″-yl)benzimidazol-2′-yl)pyridine] | – | – | – | – | 1.12 | 1.22 | 2.5 | 73.3 µM |
| CN1CCN(c2ccc3[nH]c(-c4ccc5[nH]c(-c6ccc7ccccc7n6)nc5c4)nc3c2)CC1 [Example 13, 2-(5′-(5″-(4′″-Methylpiperazin-1′″-yl)benzimidazol-2″-yl)benzimidazol-2′-yl)quinoline] | 14 µM | – | – | – | 1.65 | 1.66 | 11.0 | – |
| CN1CCN(c2ccc3[nH]c(-c4ccc5[nH]c(-c6nn(C)c7ccccc67)nc5c4)nc3c2)CC1 [Example 17, 1-methyl-3-(5′-(5″-(4′″-methylpiperazin-1′″-yl)benzimidazol-2″-yl)benzimidazol-2′-yl)indazole] | 76.5 µM | – | – | – | 1.27 | 1.68 | 10.9 | – |
| CCCCN1CCN(c2ccc3nc(-c4ccc5nc(-c6ccccn6)[nH]c5c4)[nH]c3c2)CC1 [Example 34, 2-(5′-(5″-(4′″-Butylpiperazin-1′″-yl)benzimidazol-2″-yl)benzimidazol-2′-yl)pyridine] | – | – | – | – | 2.05 | 2.27 | 27.6 | 47 µM |
| COCCNc1ccc2[nH]c(-c3ccc4nc(-c5ccccn5)[nH]c4c3)nc2c1 [Example 35, 2-(5′-(5″-(2′″-methoxyethylamino)benzimidazol-2″-yl)benzimidazol-2′-yl)pyridine] | – | – | – | – | 1.66 | 2.19 | 21.9 | 126 µM |
| c1ccc(-c2nc3ccc(-c4nc5ccc(N6CCSCC6)cc5[nH]4)cc3[nH]2)nc1 [Example 36, 2-(5′-(5″-thiomorpholinobenzimidazol-2″-yl)benzimidazol-2′-yl)pyridine] | – | – | – | – | 1.49 | 1.53 | 16.4 | 31.3 µM |
| CN(C)C(=O)N1CCN(c2ccc3[nH]c(-c4ccc5[nH]c(-c6ccccn6)nc5c4)nc3c2)CC1 [Example 37, 2-(5′-(5″-(4′″-(dimethylcarbamoyl)piperazin-1 ′″-yl)benzimidazol-2″-yl)benzimidazol-2′-yl)pyridine] | 120 µM | – | – | – | 1.49 | 1.82 | 34.6 | – |
| COCCN1CCN(c2ccc3nc(-c4ccc5nc(-c6ccccn6)[nH]c5c4)[nH]c3c2)CC1 [Example 40, 2-(5′-(5″-(4′″-(2″″-methoxyethyl)piperazin-1′″-yl)benzimidazol-2″-yl)benzimidazol-2′-yl)pyridine] | – | – | – | – | 1.77 | 198 | 20.2 | 80.7 µM |
| CN(C)CCNc1ccc2[nH]c(-c3ccc4[nH]c(-c5ccccn5)nc4c3)nc2c1 [Example 43, 2-(5′-(5″-(2′″-(dimethylamino)ethylamino)benzimidazol-2″-yl)benzimidazol-2′-yl)pyridine] | 118 µM | – | – | – | 1.28 | 1.61 | 11.2 | – |
| CN(C)Nc1ccc2[nH]c(-c3ccc4[nH]c(-c5ccccn5)nc4c3)nc2c1 [Example 46, 2-(5′-(5″-(2′″,2′″-dimethylhydrazinyl)benzimidazol-2″-yl)benzimidazol-2′-yl)pyridine] | – | – | – | – | 1.29 | 1.71 | 27.9 | 74.6 µM |
